The text below walks through data of US20150210740A1, “PSEUDOURIDIMYCIN (PUM) AND ITS DERIVATIVES” (NEW-ANTI-INFECTIVES CONSORTIUM S.C.A.R.L., priority 2012, published 2015).

Experiment [1] concerns the target T1, T7 RNAP (Escherichia phage T7, UniProt P00573).
T1 construct: purchased Promega Corporation
The experiment is described as follows: RNAP inhibition, T7 RNAP. The format is biochemical, bacteriophage T7. The procedure: The effect of PUM on bacterial RNAP is measured using an RNAP purified from either Escherichia coli (Sigma Aldrich) or Bacillus subtilis as described by Qi and Hulett (Qi Y, Hulett F M., Mol. Microbiol. 1998, 28(6):1187-1197). The bacterial RNAPs are used at 1.1 mg/ml, while the RNAP from bacteriophage T7 (Promega Corporation) is used at 20 U/ml. The nuclear extracts from HeLa cells (Human cervix carcinoma fibroblast; Promega Corporation) or NSO cells (non IgG secreting mouse myeloma lymphoblast; prepared as described by Dignam J D, Lebovitz R M, Roeder R G., Nucleic Acids Res. 1983, 11(5):1475-89) are used at 18 mg/ml. The reaction mixtures (50 μl) contain 40 mM Tris-HCl (pH 7.9), 6 mM MgCl2, 2 mM spermidine, 10 mM NaCl, 10 mM DTT, 10 μg/ml bovine serum albumin, 100 μM ATP, CTP and GTP, 2 μM UTP, 0.5 μCi [α-^32P]UTP, PUM at the desired concentration, RNAP and template DNA. […] (bacterial and phagic RNAPs) or 60 min. at 37° C., the amount of radioactivity obtained after precipitation with trichloroacetic acid is measured as previously described (Mariani R, Granata G, Maffioli S I, Serina S, Brunati C, Sosio M, Marazzi A, Vannini A, Patel D, White R, Ciabatti R. Bioorg Med Chem Lett. 2005, 15(16):3748-3752).

Experiment [2] has as its target T2, B. subtilis RNAP (Bacillus subtilis, UniProt P37870+P37871).
T2 construct: an RNAP purified from either Escherichia coli (Sigma Aldrich) or Bacillus subtilis; made in house; host or cells: Bacillus subtilis
Nature of the experiment: RNAP inhibition, B. subtilis RNAP. The class given is biochemical. The method, then: (§1) The effect of PUM on bacterial RNAP is measured using an RNAP purified from either Escherichia coli (Sigma Aldrich) or Bacillus subtilis as described by Qi and Hulett (Qi Y, Hulett F M., Mol. Microbiol. 1998, 28(6):1187-1197). The bacterial RNAPs are used at 1.1 mg/ml, while the RNAP from bacteriophage T7 (Promega Corporation) is used at 20 U/ml. The nuclear extracts from HeLa cells (Human cervix carcinoma fibroblast; Promega Corporation) or NSO cells (non IgG secreting mouse myeloma lymphoblast; prepared as described by Dignam J D, Lebovitz R M, Roeder R G., Nucleic Acids Res. 1983, 11(5):1475-89) are used at 18 mg/ml. The reaction mixtures (50 μl) contain 40 mM Tris-HCl (pH 7.9), 6 mM MgCl2, 2 mM spermidine, 10 mM NaCl, 10 mM DTT, 10 μg/ml bovine serum albumin, 100 μM ATP, CTP and GTP, 2 μM UTP, 0.5 μCi [α-^32P]UTP, PUM at the desired concentration, RNAP and template DNA. The templates used for the transcription are the plasmid pGEM3Z (20 nM; Promega Corporation) for the bacterial and phagic RNAPs, and DNA derived from calf thymus (20 μg/ml; Sigma Aldrich) for the eukaryotic polymerases. After 30 min. (bacterial and phagic RNAPs) or 60 min. at 37° C., the amount of radioactivity obtained after precipitation with trichloroacetic acid is measured as previously described (Mariani R, Granata G, Maffioli S I, Serina S, Brunati C, Sosio M, Marazzi A, Vannini A, Patel D, White R, Ciabatti R. Bioorg Med Chem Lett. 2005, 15(16):3748-3752).

For experiment [3], the target named is B. subtilis β(Q469R) (Bacillus subtilis, UniProt P37870+P37871, Q469R). Nature of the experiment: RNAP inhibition, rifampicin-resistant B. subtilis RNAP. The format is biochemical.
The target of experiment [4] is T3, E. coli RNAP (Escherichia coli, UniProt P0A8T7+P0A8V2).
T3 construct: an RNAP purified from either Escherichia coli (Sigma Aldrich) or Bacillus subtilis; purchased Sigma Aldrich; host or cells: Escherichia coli
The experiment is described as follows: RNAP inhibition, E. coli RNAP. The class given is biochemical. The procedure: as §1

Experiment [5] addresses T4, bacterial RNAP (UniProt P0A8T7+P0A8V2).
T4 construct: other: reaction mixture used as is for the bioactivity tests
The experiment is described as follows: Inhibition of bacterial RNAP. To be noted: read-out: IC50, bacterial RNAP; reaction mixture used as is for the bioactivity tests. The format is biochemical.

Experiment [6] deals with NSO nuclear extract. Nature of the experiment: RNAP inhibition, NSO nuclear extract. The class given is biochemical, mouse.
The subject of experiment [7] is HeLa nuclear extract. The experiment is described as follows: RNAP inhibition, HeLa nuclear extract. The class given is biochemical, Human.
The test system of experiment [8] is Haemophilus influenzae L3296. The experiment is described as follows: Growth inhibition (MIC), Haemophilus influenzae. The class given is cell-based.
The test system of experiment [9] is Streptococcus pneumoniae. Nature of the experiment: Growth inhibition (MIC), Streptococcus pneumoniae. The class given is cell-based. The method, then:
[Worded in the source for another organism; used here, by the source, with some conditions changed.] (§2) The antibacterial activity is determined by evaluating the effect on the growth kinetics as described (Holowachuka S, Bal'ab M, Buddington R., 2003, J. Microbiol. Meth. 55, 441-446). Micro-organisms are grown in either Todd Hewitt medium (Streptococcus pyogenes) or cation-adjusted Mueller Hinton Broth (S. aureus, E. faecium, M catarrhalis, E. coli, P. aeruginosa, S. maltophilia) on 96-well microtiter plates. Each bacterial strain is inoculated with 5×10^4 CFU/ml and incubated at 37° C. on the Synergy 2 reader (BioTek), and the optical density is monitored at 595 nm for 48 h.

Experiment [10] has as its system Streptococcus pyogenes. Nature of the experiment: Growth inhibition (MIC), Streptococcus pyogenes. The format is cell-based. Particulars: Streptococcus pyogenes L49. The procedure:
as §2

The subject of experiment [11] is Gram-positive and Gram-negative susceptible, resistant and multi-resistant pathogenic bacteria. Nature of the experiment: Growth inhibition of pathogenic bacteria. The format is cell-based. To be noted: human serum 30%. The procedure:
as §2

In experiment [12] the test system is Neisseria meningitidis L1612. Nature of the experiment: Growth inhibition (MIC), Neisseria meningitidis. The format is cell-based.
For experiment [13], the system named is T5, bacterial RNAP.
T5 construct: other: RNAP of both Gram-positive and
The experiment is described as follows: Inhibition of bacterial RNAP. The class given is biochemical. Particulars: RNAP of both Gram-positive and Gram-negative bacteria; read-out: IC50 (concentration producing 50% inhibition of enzyme activity), bacterial RNAP.

The test system of experiment [14] is S. pyogenes C203. The experiment is described as follows: S. pyogenes peritonitis model in mice. The format is in vivo, ICR female mice. Particulars: for ED50: Streptococcus pyogenes. The method, then: ICR female mice (Harlan Italia) weighing 23-25 g are acclimated (23±2° C., humidity, 55±10% humidity) for one week before the experiment. The infection is induced by intraperitoneal injection of 4×10^3 CFU of S. pyogenes […] in 0.5 mL of saline containing 1% peptone. 48-72 h after infection, this inoculum leads to a mortality of at least 95% in untreated controls. Eight mice per group for each dose are treated with 0.25 mL of PUM prepared in 5% dextrose. Two different experiments were performed: in the first experiment, PUM is administered intravenously 10 min. after the infection and 6 hours later; in the second experiment, PUM is administered as a single intravenous or subcutaneous dose 10 min. after infection. The mortality of the animals is recorded daily. The ED50 (50% effective dose) and 95% confidence limits are calculated as described (Finney, D. J. 1952. The Spearman-Kärber method. P. 524-30. In D. J. Finney (ed.) Statistical method in biological assay. Charles Griffin & Company Limited, London) for surviving animals at day 7 at each dose.

Experiment [15] has as its system Moraxella catarrhalis L3294. Nature of the experiment: Growth inhibition (MIC), Moraxella catarrhalis. The format is cell-based. The method, then:
as §2

pIC50: −log10 of the molar value. ≈ marks a conversion by molar mass, not a printed value. Where two headings read alike, the source gives them in different places.

B. subtilis β(Q469R), sequence (P20429 whole entry): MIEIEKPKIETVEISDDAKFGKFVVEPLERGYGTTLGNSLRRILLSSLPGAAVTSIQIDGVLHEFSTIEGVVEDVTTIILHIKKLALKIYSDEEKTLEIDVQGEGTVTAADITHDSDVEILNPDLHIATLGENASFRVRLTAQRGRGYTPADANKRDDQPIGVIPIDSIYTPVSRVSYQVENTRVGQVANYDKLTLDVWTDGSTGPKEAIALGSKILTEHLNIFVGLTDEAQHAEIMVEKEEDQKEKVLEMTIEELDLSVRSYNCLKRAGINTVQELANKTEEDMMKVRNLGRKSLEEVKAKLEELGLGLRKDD
B. subtilis β(Q469R), sequence (P37870 whole entry Q469R): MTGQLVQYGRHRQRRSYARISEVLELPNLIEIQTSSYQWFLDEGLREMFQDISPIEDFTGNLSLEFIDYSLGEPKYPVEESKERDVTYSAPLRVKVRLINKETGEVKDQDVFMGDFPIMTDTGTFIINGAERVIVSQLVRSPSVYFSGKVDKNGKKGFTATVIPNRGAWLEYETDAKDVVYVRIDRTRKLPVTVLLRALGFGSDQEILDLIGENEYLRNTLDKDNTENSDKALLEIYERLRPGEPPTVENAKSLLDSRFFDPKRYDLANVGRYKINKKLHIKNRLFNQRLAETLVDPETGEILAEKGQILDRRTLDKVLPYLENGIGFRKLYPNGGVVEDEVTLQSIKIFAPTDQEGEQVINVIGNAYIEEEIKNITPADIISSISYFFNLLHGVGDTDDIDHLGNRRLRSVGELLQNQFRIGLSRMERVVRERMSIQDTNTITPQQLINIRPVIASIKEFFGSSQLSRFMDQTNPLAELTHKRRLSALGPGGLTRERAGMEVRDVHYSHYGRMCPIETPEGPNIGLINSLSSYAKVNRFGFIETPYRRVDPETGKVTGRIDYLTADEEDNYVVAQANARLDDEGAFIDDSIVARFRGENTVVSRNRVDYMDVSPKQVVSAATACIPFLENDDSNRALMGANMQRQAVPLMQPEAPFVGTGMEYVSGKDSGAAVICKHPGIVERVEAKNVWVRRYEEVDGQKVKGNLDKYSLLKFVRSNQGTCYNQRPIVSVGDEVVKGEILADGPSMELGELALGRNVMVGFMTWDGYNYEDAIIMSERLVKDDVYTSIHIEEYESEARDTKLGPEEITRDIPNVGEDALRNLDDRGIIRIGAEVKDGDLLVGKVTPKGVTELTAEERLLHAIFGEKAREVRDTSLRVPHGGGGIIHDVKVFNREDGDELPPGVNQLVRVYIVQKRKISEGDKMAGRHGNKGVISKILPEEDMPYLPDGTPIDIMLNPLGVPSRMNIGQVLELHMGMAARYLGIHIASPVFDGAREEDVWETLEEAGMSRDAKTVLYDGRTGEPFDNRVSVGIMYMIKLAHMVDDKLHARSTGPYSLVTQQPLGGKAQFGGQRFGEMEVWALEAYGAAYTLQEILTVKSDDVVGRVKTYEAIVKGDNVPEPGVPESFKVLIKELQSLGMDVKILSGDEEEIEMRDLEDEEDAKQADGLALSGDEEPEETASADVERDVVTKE
B. subtilis β(Q469R), sequence (P37871 whole entry): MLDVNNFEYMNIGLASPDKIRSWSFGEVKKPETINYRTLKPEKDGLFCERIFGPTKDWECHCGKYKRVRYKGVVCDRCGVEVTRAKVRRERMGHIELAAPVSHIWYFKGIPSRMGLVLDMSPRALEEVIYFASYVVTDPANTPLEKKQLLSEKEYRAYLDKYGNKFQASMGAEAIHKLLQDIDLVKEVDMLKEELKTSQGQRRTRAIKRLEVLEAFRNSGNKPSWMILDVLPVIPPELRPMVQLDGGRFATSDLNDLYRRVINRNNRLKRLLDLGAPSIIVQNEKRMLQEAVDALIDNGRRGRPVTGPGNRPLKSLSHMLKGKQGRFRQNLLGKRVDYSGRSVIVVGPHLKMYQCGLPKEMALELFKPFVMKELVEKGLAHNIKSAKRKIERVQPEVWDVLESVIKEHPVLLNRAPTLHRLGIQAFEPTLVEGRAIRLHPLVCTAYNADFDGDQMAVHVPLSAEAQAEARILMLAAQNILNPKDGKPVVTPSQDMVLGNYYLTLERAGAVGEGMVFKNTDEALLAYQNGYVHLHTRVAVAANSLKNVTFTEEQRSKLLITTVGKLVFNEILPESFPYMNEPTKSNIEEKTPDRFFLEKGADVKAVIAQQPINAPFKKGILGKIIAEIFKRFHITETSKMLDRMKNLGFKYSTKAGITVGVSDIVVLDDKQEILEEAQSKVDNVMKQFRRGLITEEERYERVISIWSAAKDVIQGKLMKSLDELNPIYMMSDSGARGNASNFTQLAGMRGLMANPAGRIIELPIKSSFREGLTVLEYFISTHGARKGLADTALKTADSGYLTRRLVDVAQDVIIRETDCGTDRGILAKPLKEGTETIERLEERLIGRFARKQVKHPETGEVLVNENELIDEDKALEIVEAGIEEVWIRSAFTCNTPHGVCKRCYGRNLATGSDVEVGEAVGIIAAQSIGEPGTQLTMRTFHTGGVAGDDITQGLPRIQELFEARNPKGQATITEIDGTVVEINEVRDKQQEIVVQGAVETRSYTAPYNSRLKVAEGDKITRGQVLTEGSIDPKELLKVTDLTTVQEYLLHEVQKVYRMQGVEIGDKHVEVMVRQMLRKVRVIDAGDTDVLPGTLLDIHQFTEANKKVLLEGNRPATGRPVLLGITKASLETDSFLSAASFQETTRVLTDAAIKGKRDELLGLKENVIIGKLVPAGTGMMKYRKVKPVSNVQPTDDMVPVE
B. subtilis β(Q469R), sequence (O35011 whole entry, further chain): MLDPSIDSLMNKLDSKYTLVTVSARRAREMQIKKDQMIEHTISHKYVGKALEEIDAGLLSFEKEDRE
T2 sequence (O35011 whole entry): as the sequence (O35011 whole entry, further chain) above
T2 sequence (P37871 whole entry): as the sequence (P37871 whole entry) above
T2 sequence (P20429 whole entry, further chain): as the sequence (P20429 whole entry) above
T2 sequence (P37870 whole entry): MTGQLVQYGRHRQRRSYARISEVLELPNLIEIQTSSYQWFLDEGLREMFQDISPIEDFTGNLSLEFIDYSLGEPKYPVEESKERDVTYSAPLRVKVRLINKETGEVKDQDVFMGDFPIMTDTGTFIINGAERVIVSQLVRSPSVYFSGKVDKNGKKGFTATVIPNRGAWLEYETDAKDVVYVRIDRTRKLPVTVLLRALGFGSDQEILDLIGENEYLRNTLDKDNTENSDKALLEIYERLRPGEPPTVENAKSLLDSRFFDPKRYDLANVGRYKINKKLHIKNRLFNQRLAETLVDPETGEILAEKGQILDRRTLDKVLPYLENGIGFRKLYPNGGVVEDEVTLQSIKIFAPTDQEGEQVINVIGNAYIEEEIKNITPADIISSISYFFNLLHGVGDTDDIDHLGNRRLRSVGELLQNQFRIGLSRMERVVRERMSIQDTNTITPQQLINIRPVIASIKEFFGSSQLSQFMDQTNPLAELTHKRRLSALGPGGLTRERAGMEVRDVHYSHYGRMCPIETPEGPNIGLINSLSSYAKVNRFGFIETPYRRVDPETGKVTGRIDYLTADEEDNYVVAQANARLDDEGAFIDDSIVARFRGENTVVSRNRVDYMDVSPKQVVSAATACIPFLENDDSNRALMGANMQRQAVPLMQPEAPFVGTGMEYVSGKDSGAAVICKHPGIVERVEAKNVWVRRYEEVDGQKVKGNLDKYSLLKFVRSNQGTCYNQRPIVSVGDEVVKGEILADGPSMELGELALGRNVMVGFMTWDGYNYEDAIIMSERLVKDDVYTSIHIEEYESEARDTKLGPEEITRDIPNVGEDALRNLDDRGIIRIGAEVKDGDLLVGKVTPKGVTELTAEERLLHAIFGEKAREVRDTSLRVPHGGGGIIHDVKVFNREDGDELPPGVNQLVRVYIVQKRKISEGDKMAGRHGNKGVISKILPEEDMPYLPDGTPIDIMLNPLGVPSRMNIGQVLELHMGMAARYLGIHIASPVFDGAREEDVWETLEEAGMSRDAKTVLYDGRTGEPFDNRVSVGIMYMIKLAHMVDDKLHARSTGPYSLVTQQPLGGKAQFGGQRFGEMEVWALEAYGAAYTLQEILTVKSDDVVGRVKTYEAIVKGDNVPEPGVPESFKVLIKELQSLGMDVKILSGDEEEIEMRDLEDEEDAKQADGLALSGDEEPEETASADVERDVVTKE
T1 sequence (P00573 whole entry): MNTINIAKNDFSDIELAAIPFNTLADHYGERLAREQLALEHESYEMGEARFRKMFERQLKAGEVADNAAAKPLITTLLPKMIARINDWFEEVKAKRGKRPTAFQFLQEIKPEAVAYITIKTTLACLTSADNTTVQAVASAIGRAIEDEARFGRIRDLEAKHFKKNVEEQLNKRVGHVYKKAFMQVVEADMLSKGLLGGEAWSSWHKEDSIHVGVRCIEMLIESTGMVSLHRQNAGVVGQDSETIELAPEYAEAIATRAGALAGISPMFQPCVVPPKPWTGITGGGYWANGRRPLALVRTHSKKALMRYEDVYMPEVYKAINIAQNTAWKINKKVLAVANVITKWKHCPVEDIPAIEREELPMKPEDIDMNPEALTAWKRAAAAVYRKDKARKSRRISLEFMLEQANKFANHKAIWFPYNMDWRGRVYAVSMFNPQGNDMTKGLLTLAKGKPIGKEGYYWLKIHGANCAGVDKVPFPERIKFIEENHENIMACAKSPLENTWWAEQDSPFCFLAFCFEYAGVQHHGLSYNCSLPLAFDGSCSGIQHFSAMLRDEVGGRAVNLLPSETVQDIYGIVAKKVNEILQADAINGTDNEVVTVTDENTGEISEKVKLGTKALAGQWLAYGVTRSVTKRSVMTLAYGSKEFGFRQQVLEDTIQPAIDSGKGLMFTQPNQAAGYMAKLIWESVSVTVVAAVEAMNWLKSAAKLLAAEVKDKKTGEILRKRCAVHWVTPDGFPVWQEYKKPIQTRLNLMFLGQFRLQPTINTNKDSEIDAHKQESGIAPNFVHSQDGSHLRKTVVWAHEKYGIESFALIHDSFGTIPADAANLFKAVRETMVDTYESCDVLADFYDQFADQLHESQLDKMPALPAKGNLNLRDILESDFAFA

Regarding `CO[C@H]1/C=C/O[C@@]2(C)Oc3c(C)c(O)c4c(O)c(c(/C=N/N5CCN(C)CC5)c(O)c4c3C2=O)NC(=O)/C(C)=C\C=C\[C@H](C)[C@H](O)[C@@H](C)[C@@H](O)[C@@H](C)[C@H](OC(C)=O)[C@@H]1C` [Rif, rifampicin, reference compound], the pIC50 in experiment [1] was under 3.92; in experiment [2], 7.30; in experiment [3], under 3.92; in [4], 7.22.

Consider `N=C(N)NCC(=O)N(O)[C@@H](CCC(=O)NCc1ccccc1)C(=O)NC[C@H]1O[C@@H](c2c[nH]c(=O)[nH]c2=O)[C@H](O)[C@@H]1O` [compound III, PUM benzylamide], for which the pIC50 in experiment [5] is 5.40.

`CCc1c(Cl)c(O)c(Cl)c(O)c1C(=O)O[C@H]1[C@H](O)[C@H](OC)[C@H](OC/C2=C\C=C\C[C@H](O)/C(C)=C/[C@H](CC)[C@@H](O[C@@H]3OC(C)(C)[C@@H](OC(=O)C(C)C)[C@H](O)[C@@H]3O)/C(C)=C/C(C)=C/C[C@@H]([C@@H](C)O)OC2=O)O[C@@H]1C` [Fdx, fidaxomicin, reference compound]: the pIC50 in [6] was 4.38; in experiment [2] it was 6.05; in experiment [3] it was 6.15; in experiment [7], under 4.04; in experiment [4] it was 5.26.

On to `N=C(N)NCC(=O)N(O)[C@@H](CCC(N)=O)C(=O)NC[C@H]1O[C@@H](c2c[nH]c(=O)[nH]c2=O)[C@H](O)[C@@H]1O` [PUM, Pseudouridimycin], for which the MIC in experiment [8] turned out to be 0.8 µg/mL (≈ 1.64 µM); in experiment [9] (Streptococcus pneumoniae L44, human serum 30% present), 2 µg/mL; in experiment [9] (Streptococcus pneumoniae L44, human serum absent), 3 µg/mL; in experiment [9] (Streptococcus pneumoniae L899-Rif^R, human serum absent), 3 µg/mL; in experiment [9] (Streptococcus pneumoniae L1407-Azi^R, human serum absent), 3 µg/mL; in [9] (Streptococcus pneumoniae L1542-Ami^REry^RCli^RGen^RTet^R, human serum absent), 3 µg/mL. Besides, the MIC was 3 µg/mL in experiment [9] (Streptococcus pneumoniae L2868-8 MDR, human serum absent); 2 µg/mL in [9] (Streptococcus pneumoniae L3909-Pen^REry^RChl^RCtr^R, human serum absent); 3 µg/mL in experiment [9] (Streptococcus pneumoniae ND061311-Pen^RAzi^R, human serum absent); 2 µg/mL in [10] (human serum 30% present); 2 µg/mL in experiment [10] (human serum absent, read-out: MIC); 10 µg/mL (≈ 20.6 µM) in experiment [12]. The MIC in [15] worked out at 0.8 µg/mL. Further, the pIC50 in experiment [6] was 3.69; in [1], under 3.69; in experiment [2], 6.40; in experiment [3] it was 7.00; in [13], 6.40 to 6.52; in experiment [7], under 4.13. Moreover, the pIC50 in [4] is 6.52. In addition, in experiment [11], the “effect of human serum on antibacterial activity” value was “not affected by the presence of human serum”. In addition, the cross-resistance with rifampicin result in [3] (RNAP inhibition, Table 1) is given as “without showing any cross-resistance with rifampicin”. Moreover, the 50% effective dose (ED50) stood at 10 mg/kg in experiment [14] (C203, iv, iv: 10 min. and 6 h post-infection, survival at day 7); 20 mg/kg in experiment [14] (C203, iv, iv: 10 min. post-infection, survival at day 7); 10 mg/kg in [14] (C203, murine model of Streptococcus peritonitis, regimen not given); 20 mg/kg in experiment [14] (C203, sc, sc: 10 min. post-infection, survival at day 7). Moreover, the “effectiveness after intravenous versus subcutaneous administration” value in experiment [14] (murine Streptococcus peritonitis) was “comparable effectiveness”.

One may read the ED50 as the dose that gives a 50% effect, or the effect in half of the subjects. Read a high ED50 as weaker potency.
